This note sets out measurements from US4980349A, “Sulphonamides derived from diarylmethanes, the processes for preparing them and pharmaceutical compositions containing them” (SANOFI, priority 1986, dated 1990).

Assay [1] relates to pain threshold of brewer's yeast inflamed rat hind foot. Put plainly: Randall and Sellitto's test (analgesic activity). Particulars: first experiment, Table XII, read-out: percentage increase in the mean pain threshold; for change in vivo at 25 mg/kg: 25 mg/kg oral; for change in vivo at 50 mg/kg: 50 mg/kg oral; for change in vivo at 100 mg/kg: 100 mg/kg oral. It is filed as in vivo. How it is done:
Inflammation increases the sensitivity to pain, in particular to pressure, and analgesics raise the threshold of the sensitivity.
The inflammation is obtained by injecting 0.1 ml of a 20% strength aqueous suspension of brewer's yeast under the plantar aponeurosis of one of the hind feet. […] The pain threshold is assessed in terms of the force necessary and sufficient to initiate a characteristic reaction of withdrawing the foot.
The sensitivity to pain of the inflamed foot reaches a plateau 4 hours after the injection of the brewer's yeast, and then remains stable until the 6th hour. The pain threshold of the inflamed foot in control rats weighing 140 g is reached for pressures of 50 to 60 g, whereas it is around 160 g for the intact foot.
The action of the substance administered orally to series of 10 rats is expressed in terms of the percentage increase in the mean pain threshold, compared with that measured in the rats of a control series of 10 animals which have not received a compound of the invention.
The test products are administered orally (stomach tube) one hour before the injection of brewer's yeast.
The comparative compound used is ketoprofen.

Assay [2] relates to rat hind foot kaolin-induced oedema. Put plainly: Kaolin-induced arthritis test, first experiment (decrease in inflammation, foot volume). It counts as in vivo. Particulars: 1 h before kaolin, Table IX, read-out: percentage decrease in the inflammation; for change in vivo at 25 mg/kg: 25 mg/kg oral; for change in vivo at 50 mg/kg: 50 mg/kg oral; for change in vivo at 100 mg/kg: 100 mg/kg oral. The procedure: The […] of 0.05 ml of a sterile 10% strength suspension of kaolin into the metatarsal flexor sheath of the hind foot of a rat initially induces an oedematous reaction. An inflammatory arthritis then forms.
The early oedematous reaction appears from the first hour, and reaches its maximum between the fourth hour and the sixth hour. This is the manifestation of interest. The assessment of the volume of the foot enables the action of substances on the oedematous reaction to be studied. The measurements are carried out using a Giono and Chevilard plethysmometer.
The test products are administered orally (stomach tube) one hour before the injection of the kaolin.
The results are expressed as a percentage decrease in the inflammation in the treated animals compared with a control series of animals.
The batches are of 10 animals per dose and 10 control animals.
The figures shown represent the mean of 10 animals.

For assay [3], the system named is rat hind foot carragheenin-induced oedema. In words: Carragheenin-induced oedema test. It counts as in vivo. Particulars: 3 h, first experiment, Table X, read-out: percentage inhibition of the inflammation; for change in vivo at 25 mg/kg: 25 mg/kg oral; for change in vivo at 50 mg/kg: 50 mg/kg oral; for change in vivo at 100 mg/kg: 100 mg/kg oral. How it is done:
In this test, 10 rats are used per test compound of the invention. Control batches of 10 rats also receive either the comparative compound (ketoprofen) or exclusively an NaCl solution.
The compounds of the invention are administered orally (stomach tube) one hour before the injection of carragheenin.
The carragheenin is suspended at a concentration of 1% in a 0.9% isotonic sodium chloride solution. The volume injected into the rat's foot is 0.20 ml.
The volume of the foot is measured before the injection and 3 hours later. The antagonistic effect of the products towards carragheenin is reflected in the inhibition of the volume of the oedema compared with control rats. The latter receive only isotonic NaCl solution under identical conditions.

Assay [4] deals with biosynthesis of leukotrienes B4 (LTB4), human polymorphonuclear leukocytes. In words: Biosynthesis of LTB4, isomers and oxidized metabolites in human polymorphonuclear leukocytes. It is filed as cell-based. Particulars: Leukocyte. How it is done: Polymorphonuclear leukocytes are isolated from human blood and used during the 6 hours following the withdrawal. The viability of the cells is checked by trypan blue exclusion.
5×10^6 cells are incubated for 10 minutes at 37° C. in the presence of the test product dissolved in DMSO, and are stimulated with ionophore A 23187 (Galbiochem, 10 μM) in PBS buffer at pH 7.4, Ca^2+ and Mg^2+ =1 μM.
100 ng of prostaglandin B2 (PGB2), dissolved in methanol, are added at the end of the reaction to act as an internal standard.
On centrifugation, the culture supernatant is withdrawn. The latter is retrieved under argon and stored at -80° C. until analysed by HPLC.
This analysis is carried out by injecting 250 μl onto a 5 μm ODS ultrasphere column (Beckmann), with a gradient of acetonitrile (20-80%) in water, at pH 7.4.
The amounts of the different products which absorb at 269 nm, i.e. leukotrienes B4 (LTB4), isomers of LTB4 and oxidized metabolites of LTB4, are estimated by comparison with the internal standard.
The test product is used at a concentration of 40 μM.
They are expressed either as a percentage inhibition, or as a percentage increase in the production of LTB4, isomers of LTB4 and oxidized metabolites of LTB4 (designated by +).
The experimental model is the same as that described in Section 2.1. Other products are tested by comparison with the compound of the invention no. 1574, used as a control.

The mark [5] stands for this setting: first experiment, read-out: Isomers of LTB4: percentage inhibition (+ : percentage increase in the production).
Where [6] appears, read: first experiment, read-out: LTB4: percentage inhibition (+ : percentage increase in the production).
[7] abbreviates: first experiment, read-out: Oxidized metabolites of LTB4: percentage inhibition (+ : percentage increase in the production).
Setting [8] is: second experiment, read-out: Percentage inhibition of LTB4 formation.

Like-named read-outs stand apart in the source and are kept apart here.

As to `O=C(c1ccccc1)c1ccccc1S(=O)(=O)NCCCN1CCOCC1` [Compound 1340], in assay [1], the change in vivo at 25 mg/kg came out at 10%, the change in vivo at 50 mg/kg is 20% and the change in vivo at 100 mg/kg is 49%. Besides, in assay [2], the change in vivo at 25 mg/kg is -10%, the change in vivo at 50 mg/kg is -25% and the change in vivo at 100 mg/kg was -45%. For the same molecule, in assay [3], the change in vivo at 25 mg/kg is -5%, the change in vivo at 50 mg/kg is -5% and the change in vivo at 100 mg/kg is -10%.

Regarding `O=C(c1ccccc1)c1cc(Cl)ccc1S(=O)(=O)NCCN1CCOCC1` [Compound 1343], in assay [1], the change in vivo at 25 mg/kg was 10%, the change in vivo at 50 mg/kg was determined as 12% and the change in vivo at 100 mg/kg stood at 12%. In assay [3], the change in vivo at 25 mg/kg was -7%, the change in vivo at 50 mg/kg is -8% and the change in vivo at 100 mg/kg was -8%.

With `O=C(c1ccccc1)c1cc(Cl)ccc1S(=O)(=O)NCCCN1CCOCC1` [Compound 1344, 2-benzoyl-4-chloro-N-(3-morpholinopropyl)benzenesulphonamide], in assay [1], the change in vivo at 25 mg/kg was 18%, the change in vivo at 50 mg/kg stood at 18% and the change in vivo at 100 mg/kg is 25%. Also, in assay [2], the change in vivo at 25 mg/kg was -10%, the change in vivo at 50 mg/kg is -15% and the change in vivo at 100 mg/kg was -18%.

`O=C(O)CNS(=O)(=O)c1ccc(Cl)cc1C(=O)c1ccccc1` [Compound 1565]: in assay [1], the change in vivo at 25 mg/kg stood at 18%, the change in vivo at 50 mg/kg was found to be 28% and the change in vivo at 100 mg/kg is 42%. In addition, in assay [2], the change in vivo at 25 mg/kg was -15%, the change in vivo at 50 mg/kg was -20% and the change in vivo at 100 mg/kg was -45%. Also, in assay [3], the change in vivo at 25 mg/kg is -18%, the change in vivo at 50 mg/kg was -22% and the change in vivo at 100 mg/kg was -49%.

Take `O=C(O)CCCNS(=O)(=O)c1ccc(Cl)cc1C(=O)c1ccccc1` [Compound 1567]: in assay [1], the change in vivo at 25 mg/kg was 12%, the change in vivo at 50 mg/kg was determined as 15% and the change in vivo at 100 mg/kg was determined as 20%. Further, in assay [2], the change in vivo at 25 mg/kg was -12%, the change in vivo at 50 mg/kg is -15% and the change in vivo at 100 mg/kg is -20%. Moreover, in assay [3], the change in vivo at 25 mg/kg is -8%, the change in vivo at 50 mg/kg was -10% and the change in vivo at 100 mg/kg was -10%.

Consider `O=C(O)CCCCCNS(=O)(=O)c1ccc([N+](=O)[O-])cc1C(=O)c1ccccc1` [Compound 1568], for which, in assay [1], the change in vivo at 25 mg/kg came out at 18%, the change in vivo at 50 mg/kg is 25% and the change in vivo at 100 mg/kg amounted to 48%. In assay [2], the change in vivo at 25 mg/kg was -15%, the change in vivo at 50 mg/kg was -18% and the change in vivo at 100 mg/kg was -40%. Besides, in assay [3], the change in vivo at 25 mg/kg is -15%, the change in vivo at 50 mg/kg is -20% and the change in vivo at 100 mg/kg is -35%.

For the molecule `O=C(O)CCCCCNS(=O)(=O)c1ccc(Cl)cc1C(=O)c1ccccc1` [Compound 1569], in assay [1], the change in vivo at 25 mg/kg worked out at 10%, the change in vivo at 50 mg/kg came out at 15% and the change in vivo at 100 mg/kg is 25%. For the same molecule, in assay [2], the change in vivo at 25 mg/kg is -28%, the change in vivo at 50 mg/kg is -30% and the change in vivo at 100 mg/kg is -45%. Further, in assay [3], the change in vivo at 25 mg/kg was -30%, the change in vivo at 50 mg/kg was -35% and the change in vivo at 100 mg/kg is -50%.

As to `O=C(O)CCCCCCCCCCNS(=O)(=O)c1ccc([N+](=O)[O-])cc1C(=O)c1ccccc1` [Compound 1571], the change in vivo at 25 mg/kg in assay [1] was 25%; in assay [2] it was -17%; in assay [3], -23%. For the same molecule, the change in vivo at 50 mg/kg in assay [1] is 32%; in assay [2], -26%; in assay [3] it was -27%. Further, the change in vivo at 100 mg/kg in assay [1] is 36%; in assay [2], -50%; in assay [3], -48%. Also, the inhibition at 40 µM in assay [4] (setting [5]) came to 53%; in assay [4] (setting [6]) it was 60%; in assay [4] (setting [7]), 70%.

For the molecule `O=C(O)CNS(=O)(=O)c1ccc(Cl)cc1C(=O)c1ccccc1Cl` [Compound 1575], in assay [1], the change in vivo at 25 mg/kg amounted to 15%, the change in vivo at 50 mg/kg turned out to be 19% and the change in vivo at 100 mg/kg was 35%. Also, in assay [2], the change in vivo at 25 mg/kg is -18%, the change in vivo at 50 mg/kg was -21% and the change in vivo at 100 mg/kg is -37%. Further, in assay [3], the change in vivo at 25 mg/kg was -15%, the change in vivo at 50 mg/kg is -18% and the change in vivo at 100 mg/kg is -35%.

In the case of `O=C(O)CCCCCCCCCCNS(=O)(=O)c1ccccc1C(=O)c1ccccc1` [Compound 1682], the change in vivo at 25 mg/kg in assay [1] is 12%; in assay [2] it was -35%; in assay [3], -33%. Further, the change in vivo at 50 mg/kg in assay [1] was 15%; in assay [2], -35%; in assay [3], -42%. Moreover, the change in vivo at 100 mg/kg in assay [1] was 20%; in assay [2] it was -40%; in assay [3], -45%. Further, the values for the inhibition at 40 µM in assay [4] (setting [5]), in assay [4] (setting [6]) and in assay [4] (setting [7]) were 30%, 30% and 40%, respectively.

On to `O=C(O)CCCCCCCCCCCNS(=O)(=O)c1cccc(C(=O)c2ccccc2)c1` [Compound 1685], for which the inhibition at 40 µM in assay [4] (setting [5]) amounted to 70%; in assay [4] (setting [6]), 50%; in assay [4] (setting [7]) it was 70%.

For `O=C(O)CCCCCCCCCCCNS(=O)(=O)c1cccc(C(=O)c2cc(S(=O)(=O)NCCCCCCCCCCCC(=O)O)ccc2Cl)c1` [Compound 1689], the values for the inhibition at 40 µM in assay [4] (setting [5]), in assay [4] (setting [6]) and in assay [4] (setting [7]) were -30%, -30% and 20%, respectively.

As for `O=C(O)CCCCCCCCCCNS(=O)(=O)c1ccc(Cl)c(C(=O)c2ccccc2)c1` [Compound 1737, 11-(3-benzoyl-4-chlorobenzenesulphonamido)undecanoic acid], the inhibition at 40 µM in assay [4] (setting [8]) stood at 95%.

`O=C(O)CCCNS(=O)(=O)c1ccc(C(=O)c2cccs2)cc1` [Compound 1738, 4-[4-(2-thenoyl)benzenesulphonamido]butyric acid]: in assay [4] (setting [8]), the inhibition at 40 µM turned out to be 20%.

In the case of `O=C(O)CCCCCCCNS(=O)(=O)c1ccc(Cl)cc1C(=O)c1ccccc1Cl` [Compound 1743], the inhibition at 40 µM in assay [4] (setting [8]) is 20%.

As a reminder, the inhibition is the drop in the measured response relative to a control, in per cent.
